Measurements taken from the NIST ThermoML archive (doi:10.1016/j.jct.2017.11.012).

Conditions: for mass density: 101.33 kPa, Liquid, Buoyancy - hydrostatic balance with magnetic suspension - one sinker

CCCCCCCCn1cc[n+](C)c1.[Br-] [1-methyl-3-octylimidazolium bromide]
Conditions	mass density [kg/m3]
293.61 K	1173.83
298.22 K	1170.38
303.23 K	1166.69
307.98 K	1163.19
313.53 K	1159.21
318.39 K	1155.7
323.35 K	1151.66
328.26 K	1147.97
332.57 K	1145.04
338.39 K	1140.81
342.96 K	1137.99
347.82 K	1135.43
353.15 K	1131.58
358.97 K	1127.78
360.84 K	1126.32

surface tension liquid-gas [mN/m]
Conditions	Ring tensiometer	Wilhelmy Plate
303.23 K	32.9	32.52
307.93 K	–	32.34
307.95 K	32.68	–
313.51 K	32.49	32.16
318.36 K	–	31.99
318.37 K	32.28	–
323.33 K	–	31.75
323.34 K	32.03	–
328.25 K	–	31.56
328.26 K	31.79	–
332.59 K	31.67	–
332.6 K	–	31.43
338.4 K	31.5	–
338.44 K	–	31.17
343.06 K	30.97	–
343.07 K	–	30.89
347.49 K	30.57	–
347.69 K	–	30.73
352.5 K	–	30.58
352.52 K	30.66	–
357.51 K	30.27	–
357.64 K	–	30.33
360.82 K	30.43	–
360.88 K	–	30.24

CCC[n+]1ccn(C)c1.[Br-] [1-methyl-3-propylimidazolium bromide]
surface tension liquid-gas [mN/m]
Conditions	Ring tensiometer	Wilhelmy Plate
328.53 K	–	55.02
328.55 K	55.07	–
333.09 K	–	54.74
333.1 K	55.08	–
337.75 K	54.69	54.46
343.78 K	54.17	–
343.8 K	–	53.93
347.98 K	53.66	–
348.01 K	–	53.75
352.22 K	–	53.51
352.34 K	53.52	–
358.15 K	52.86	–
358.17 K	–	53.09
362.78 K	52.94	–
362.89 K	–	52.72

Conditions	mass density [kg/m3]
333.07 K	1332.55
337.73 K	1329.41
343.74 K	1325.39
347.91 K	1322.26
352.28 K	1318.84
358.1 K	1314.79
362.76 K	1310.9

Br.Cn1ccnc1 [1-methylimidazolium bromide]
surface tension liquid-gas [mN/m]
Conditions	Ring tensiometer	Wilhelmy Plate
323.07 K	67.99	68.35
328.84 K	67.68	67.81
332.74 K	–	67.37
332.76 K	67.45	–
337.93 K	67.14	–
338.02 K	–	66.81
344.29 K	66	–
344.42 K	–	66.16
347.21 K	65.6	–
347.25 K	–	65.85
353.02 K	64.6	–
353.08 K	–	65.23
358.29 K	64.85	–
358.33 K	–	64.67
364.65 K	64.42	–
364.75 K	–	63.96

Conditions	mass density [kg/m3]
328.83 K	1557.9
332.76 K	1554.36
337.92 K	1550.16
344.29 K	1544.92
347.1 K	1542.88
353.02 K	1538.47
358.15 K	1534.17
364.58 K	1530.63

CCCCCn1cc[n+](C)c1.[Br-] [1-pentyl-3-methylimidazolium bromide]
Conditions	mass density [kg/m3]
298.49 K	1262.83
303.3 K	1259.38
308.12 K	1256.49
313.27 K	1252.83
318.27 K	1249.49
323.3 K	1245.55
327.41 K	1242.66
333.16 K	1239.16
338.01 K	1236.12
343.01 K	1232.8
348.13 K	1229.53
353.01 K	1226.21
358.12 K	1222.61
362.97 K	1219.41

Conditions	surface tension liquid-gas [mN/m]
333.23 K, Ring tensiometer	41.96
333.26 K, Wilhelmy Plate	41.79
338.06 K, Ring tensiometer	41.95
338.08 K, Wilhelmy Plate	41.6
343.07 K, Ring tensiometer	41.84
343.09 K, Wilhelmy Plate	41.38
348.23 K, Ring tensiometer	41.59
348.26 K, Wilhelmy Plate	41.18
353.11 K, Ring tensiometer	41.45
353.13 K, Wilhelmy Plate	41
358.22 K, Ring tensiometer	41.24
358.24 K, Wilhelmy Plate	40.81
363.07 K, Ring tensiometer	41.04
363.12 K, Wilhelmy Plate	40.6

CCCCCCn1cc[n+](C)c1.[Br-] [3-hexyl-1-methyl-1H-imidazolium bromide]
surface tension liquid-gas [mN/m]
Conditions	Ring tensiometer	Wilhelmy Plate
288.65 K	40.83	–
293.93 K	40.58	–
298.48 K	40.31	–
303.39 K	40.14	–
303.45 K	–	39.75
308.08 K	39.96	–
308.14 K	–	39.56
313.4 K	39.68	–
313.41 K	–	39.34
318.16 K	39.45	39.12
323.29 K	–	38.8
323.34 K	39.07	–
328.24 K	–	38.58
328.26 K	38.83	–
333.84 K	38.51	–
333.86 K	–	38.26
338.01 K	38.31	–
338.05 K	–	38.08
343.05 K	38.09	–
343.07 K	–	37.86
348.61 K	37.8	–
348.66 K	–	37.51
352.53 K	37.43	–
352.73 K	–	37.37
358.19 K	37.28	–
358.21 K	–	37.02
360.12 K	37.19	–
360.23 K	–	36.96

Conditions	mass density [kg/m3]
288.7 K	1235.51
293.91 K	1231.69
298.52 K	1228.13
303.43 K	1224.72
308.13 K	1220.87
313.41 K	1216.98
318.19 K	1213.32
323.33 K	1209.5
328.2 K	1205.7
333.8 K	1201.57
338.04 K	1198.15
343.07 K	1195.21
348.64 K	1191.41
352.79 K	1188.62
358.28 K	1185.22
360.63 K	1183.34
